Experimental findings from ChEMBL document CHEMBL5465560, “Selectivity Literature for EUbOPEN Chemogenomic Library” (2024) are described below.

Bounds are passed on as bounds.

Assay [1] has as its target T1, Cytoplasmic tyrosine-protein kinase BMX (Homo sapiens) (UniProt P51813).
T1 sequence (whole entry): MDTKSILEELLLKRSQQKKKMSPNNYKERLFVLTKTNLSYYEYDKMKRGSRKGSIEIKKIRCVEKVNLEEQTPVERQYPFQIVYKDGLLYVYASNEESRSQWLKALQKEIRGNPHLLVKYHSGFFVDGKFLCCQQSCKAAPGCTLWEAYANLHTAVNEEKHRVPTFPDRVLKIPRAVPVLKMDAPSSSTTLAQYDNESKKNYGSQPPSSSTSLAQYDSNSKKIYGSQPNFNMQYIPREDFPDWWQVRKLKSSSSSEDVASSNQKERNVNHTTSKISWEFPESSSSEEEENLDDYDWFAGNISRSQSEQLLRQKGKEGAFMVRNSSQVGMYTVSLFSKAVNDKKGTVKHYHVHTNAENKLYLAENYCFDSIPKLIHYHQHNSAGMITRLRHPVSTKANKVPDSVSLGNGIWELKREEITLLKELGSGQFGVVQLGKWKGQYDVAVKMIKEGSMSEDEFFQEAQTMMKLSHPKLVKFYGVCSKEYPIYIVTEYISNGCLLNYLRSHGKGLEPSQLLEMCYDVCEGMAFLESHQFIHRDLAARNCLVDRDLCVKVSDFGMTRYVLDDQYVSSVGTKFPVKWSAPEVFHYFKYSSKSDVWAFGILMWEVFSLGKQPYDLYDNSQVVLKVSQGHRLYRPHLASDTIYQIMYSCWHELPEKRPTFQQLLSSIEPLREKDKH
Put plainly: Selectivity interaction (KinaseProfiler screening (Millipore)) EUB0000601a BMX. To be noted: at 3 µM.

Assay [2] concerns the target T2, Ephrin type-B receptor 1 (Homo sapiens) (UniProt P54762).
T2 sequence (whole entry): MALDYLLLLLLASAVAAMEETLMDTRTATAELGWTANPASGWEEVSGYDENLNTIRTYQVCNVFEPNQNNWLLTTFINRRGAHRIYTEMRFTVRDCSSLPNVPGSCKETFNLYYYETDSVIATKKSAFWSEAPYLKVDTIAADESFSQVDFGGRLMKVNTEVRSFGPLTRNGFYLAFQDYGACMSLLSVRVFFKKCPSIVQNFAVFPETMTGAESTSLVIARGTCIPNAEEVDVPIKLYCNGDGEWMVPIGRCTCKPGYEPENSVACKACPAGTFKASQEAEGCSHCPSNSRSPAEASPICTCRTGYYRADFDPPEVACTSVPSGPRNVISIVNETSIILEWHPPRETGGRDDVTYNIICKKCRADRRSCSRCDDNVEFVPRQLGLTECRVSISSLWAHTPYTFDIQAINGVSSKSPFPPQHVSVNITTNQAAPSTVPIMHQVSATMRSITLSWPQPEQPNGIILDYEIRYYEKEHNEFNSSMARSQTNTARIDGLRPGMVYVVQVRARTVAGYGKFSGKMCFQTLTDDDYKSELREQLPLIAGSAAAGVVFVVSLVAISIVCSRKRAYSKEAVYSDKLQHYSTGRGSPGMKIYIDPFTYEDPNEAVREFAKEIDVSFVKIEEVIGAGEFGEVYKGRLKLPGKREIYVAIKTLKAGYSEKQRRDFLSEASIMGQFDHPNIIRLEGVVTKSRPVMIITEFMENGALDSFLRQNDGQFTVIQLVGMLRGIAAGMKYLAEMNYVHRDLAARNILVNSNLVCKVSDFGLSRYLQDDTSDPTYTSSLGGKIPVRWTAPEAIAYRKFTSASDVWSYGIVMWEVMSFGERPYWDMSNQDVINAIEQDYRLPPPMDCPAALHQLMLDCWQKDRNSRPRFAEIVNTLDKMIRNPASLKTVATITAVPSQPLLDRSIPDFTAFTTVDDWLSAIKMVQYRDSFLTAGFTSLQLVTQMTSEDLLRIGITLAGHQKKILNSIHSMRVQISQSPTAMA
To be noted: at 10 µM.

The target in assay [3] is Histone-lysine N-methyltransferase 2A (Homo sapiens) (UniProt Q03164). The conditions noted are these: at 1 µM.
Assay [4] deals with T3, Cyclin-dependent kinase-like 2 (Homo sapiens) (UniProt Q92772).
T3 sequence (whole entry): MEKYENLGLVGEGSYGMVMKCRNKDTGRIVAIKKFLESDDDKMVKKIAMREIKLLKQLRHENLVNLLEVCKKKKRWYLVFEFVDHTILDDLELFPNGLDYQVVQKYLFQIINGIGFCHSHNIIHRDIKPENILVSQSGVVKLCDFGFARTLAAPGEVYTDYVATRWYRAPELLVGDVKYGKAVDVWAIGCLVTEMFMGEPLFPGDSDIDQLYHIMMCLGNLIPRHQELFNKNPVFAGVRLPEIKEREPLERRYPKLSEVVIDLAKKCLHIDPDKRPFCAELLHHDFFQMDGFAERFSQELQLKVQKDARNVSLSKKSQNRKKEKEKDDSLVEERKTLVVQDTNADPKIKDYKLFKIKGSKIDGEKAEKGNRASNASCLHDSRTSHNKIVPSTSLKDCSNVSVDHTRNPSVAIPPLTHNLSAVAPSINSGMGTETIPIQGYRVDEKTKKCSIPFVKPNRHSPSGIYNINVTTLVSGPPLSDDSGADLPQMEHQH
Put plainly: Selectivity interaction (KinomeScan (DiscoverX)) EUB0000607a CDKL2. To be noted: at 10 µM.

In assay [5] the target is Casein kinase II subunit alpha' (Homo sapiens) (UniProt P19784). Put plainly: Selectivity interaction (Kinase panel (DSF assay)) EUB0001559a CSNK2A2. A general note: In DSF a fluorescence change marks the thermal transition of the protein.
Casein kinase II subunit alpha' (Homo sapiens), sequence (P19784 whole entry, looked up): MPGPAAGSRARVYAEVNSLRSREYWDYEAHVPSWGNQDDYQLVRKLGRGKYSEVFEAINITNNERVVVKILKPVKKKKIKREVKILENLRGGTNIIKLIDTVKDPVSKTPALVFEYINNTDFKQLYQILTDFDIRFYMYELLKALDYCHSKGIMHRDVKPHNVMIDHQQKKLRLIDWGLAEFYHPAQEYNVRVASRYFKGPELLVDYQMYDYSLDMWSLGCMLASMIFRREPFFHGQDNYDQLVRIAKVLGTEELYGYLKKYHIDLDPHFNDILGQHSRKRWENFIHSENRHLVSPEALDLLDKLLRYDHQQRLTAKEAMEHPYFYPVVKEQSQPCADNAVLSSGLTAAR
For assay [6], the target named is Bone morphogenetic protein receptor type-1B (Homo sapiens, UniProt O00238). Nature of the assay: Selectivity interaction (KinomeScan (DiscoverX)) EUB0000595a BMPR1B. The conditions noted are these: at 10 µM.
Bone morphogenetic protein receptor type-1B, sequence (O00238 whole entry): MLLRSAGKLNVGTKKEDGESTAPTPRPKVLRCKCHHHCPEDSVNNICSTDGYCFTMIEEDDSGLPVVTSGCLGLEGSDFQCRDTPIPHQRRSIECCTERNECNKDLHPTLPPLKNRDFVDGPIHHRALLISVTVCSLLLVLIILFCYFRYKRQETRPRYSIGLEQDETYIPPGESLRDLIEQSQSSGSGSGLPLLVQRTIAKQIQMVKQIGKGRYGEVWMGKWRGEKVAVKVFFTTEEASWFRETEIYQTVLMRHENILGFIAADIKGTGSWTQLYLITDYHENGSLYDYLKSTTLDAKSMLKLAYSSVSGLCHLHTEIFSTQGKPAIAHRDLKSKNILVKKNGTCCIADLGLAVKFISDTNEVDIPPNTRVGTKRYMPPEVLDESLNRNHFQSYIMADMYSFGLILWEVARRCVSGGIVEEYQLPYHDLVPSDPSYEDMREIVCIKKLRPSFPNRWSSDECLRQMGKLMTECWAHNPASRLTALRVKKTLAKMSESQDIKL
Assay [7] deals with Serine/threonine-protein kinase PLK2 (Homo sapiens, UniProt Q9NYY3). Nature of the assay: Selectivity interaction (KinomeScan (DiscoverX)) EUB0001619a PLK2. The conditions noted are these: at 1 µM.
Serine/threonine-protein kinase PLK2, sequence (Q9NYY3 whole entry, looked up): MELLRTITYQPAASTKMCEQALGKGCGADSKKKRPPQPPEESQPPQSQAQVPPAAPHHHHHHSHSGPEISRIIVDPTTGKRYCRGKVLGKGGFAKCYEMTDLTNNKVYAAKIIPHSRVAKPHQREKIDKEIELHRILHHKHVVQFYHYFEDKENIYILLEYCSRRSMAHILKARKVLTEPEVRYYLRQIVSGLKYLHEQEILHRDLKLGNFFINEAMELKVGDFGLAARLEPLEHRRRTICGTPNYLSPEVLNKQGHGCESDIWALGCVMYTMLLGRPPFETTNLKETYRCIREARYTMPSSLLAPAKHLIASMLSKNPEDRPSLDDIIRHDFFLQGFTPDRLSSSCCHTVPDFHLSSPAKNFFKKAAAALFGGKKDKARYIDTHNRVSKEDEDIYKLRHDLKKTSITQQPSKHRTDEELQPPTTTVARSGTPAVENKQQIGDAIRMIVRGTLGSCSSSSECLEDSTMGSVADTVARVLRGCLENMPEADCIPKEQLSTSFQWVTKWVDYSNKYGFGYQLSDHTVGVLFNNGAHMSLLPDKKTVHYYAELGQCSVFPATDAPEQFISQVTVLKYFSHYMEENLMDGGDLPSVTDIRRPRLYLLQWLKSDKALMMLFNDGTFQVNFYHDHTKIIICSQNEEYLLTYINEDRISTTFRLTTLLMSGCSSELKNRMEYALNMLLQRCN
Assay [8] has as its target T4, Aurora kinase A (Homo sapiens) (UniProt O14965).
T4 sequence (whole entry): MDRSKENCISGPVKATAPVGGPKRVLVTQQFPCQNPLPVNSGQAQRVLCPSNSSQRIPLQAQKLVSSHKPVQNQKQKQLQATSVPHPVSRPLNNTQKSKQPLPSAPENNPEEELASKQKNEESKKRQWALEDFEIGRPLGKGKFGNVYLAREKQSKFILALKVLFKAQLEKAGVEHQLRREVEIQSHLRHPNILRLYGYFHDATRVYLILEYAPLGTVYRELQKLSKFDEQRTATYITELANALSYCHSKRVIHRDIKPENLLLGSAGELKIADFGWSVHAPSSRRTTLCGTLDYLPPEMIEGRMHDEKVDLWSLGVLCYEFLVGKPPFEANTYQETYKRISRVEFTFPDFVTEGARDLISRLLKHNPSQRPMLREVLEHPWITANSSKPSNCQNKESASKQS
Put plainly: Selectivity interaction (Kinase panel (KiNativ target engagement assay in Jurkat cells)) EUB0001635a STK6. In kind it is cell-based. The conditions noted are these: at 1 µM.

Turning to `CCc1cc(Nc2nccc(-c3c(-c4ccc(OC)c(C(=O)Nc5c(F)cccc5F)c4)nc4ccccn34)n2)c(OC)cc1N1CCC(N2CCN(S(C)(=O)=O)CC2)CC1`, the % of inhibition in assay [1] came to 71%.
In assay [2], `CCN(CC)CCCCNc1ncc2cc(-c3cc(OC)cc(OC)c3)c(NC(=O)NC(C)(C)C)nc2n1` gave a % of control of 100%.
On to `CNCCN1CCC(c2cc(CN(C)C(=O)c3cccc(Oc4ccccc4)c3)ccn2)CC1`, for which the % activity in assay [3] was over 90%.
Take `CNC(=O)Nc1ccc(-c2nc(N3CC4CCC(C3)O4)c3cnn(C4CCC5(CC4)OCCO5)c3n2)cc1`: the % of control in assay [4] came to 100%.
On to `CN(C(=O)c1cnn2cccnc12)c1cc2c(cc1N1CCOCC1)C(=O)N(C[C@@H](F)C(C)(C)O)C2`, for which the dTM in assay [5] was 1.4 K.
In turn, `COCC(=O)NC/C=C/c1ccc2ncnc(Nc3ccc(Oc4ccc(C)nc4)c(C)c3)c2c1` [CP-724714] registered a % of control in assay [6] of 17%.
`N#Cc1cccc(-c2c[nH]c3ncnc(N4CCOCC4)c23)c1` gave a % of control in assay [7] of 100%.
`C=CC(=O)Nc1ccc(C(=O)Nc2[nH]nc3c2CN(C(=O)N[C@H](CN(C)C)c2ccccc2)C3(C)C)cc1` showed a % of engagement in assay [8] of 14.1%.
